ChEMBL document CHEMBL5241090, “A comprehensive overview of β-carbolines and its derivatives as anticancer agents” (Eur J Med Chem, 2021)
Values after ≈ are worked out from the molar mass of the structure shown.

Tests used:
HCT-116 [1] = assay: Cytotoxicity against human HCT-116 cells measured after 72 hrs by MTT assay; type: functional, cell-based; settings: HCT-116, 72 h
SMMC-7721 [2] = assay: Cytotoxicity against human SMMC-7721 cells measured after 72 hrs by MTT assay; type: functional, cell-based; settings: SMMC-7721, 72 h
Bel7402/5-FU = assay: Cytotoxicity against human BEL-7402/5-FU cells measured after 72 hrs by MTT assay; type: functional, cell-based
Huh-7 = assay: Cytotoxicity against human Huh-7 cells measured after 72 hrs by MTT assay; type: functional, cell-based; settings: Huh-7, 72 h
Bel-7402 = assay: Cytotoxicity against human Bel-7402 cells measured after 72 hrs by MTT assay; type: functional, cell-based; settings: Bel-7402, 72 h
DNA topoisomerase 1 = biological target: T1, DNA topoisomerase 1 (Homo sapiens, UniProt P11387); assay: Inhibition of Topoisomerase 1 (unknown origin)
T1 sequence (P11387 whole entry): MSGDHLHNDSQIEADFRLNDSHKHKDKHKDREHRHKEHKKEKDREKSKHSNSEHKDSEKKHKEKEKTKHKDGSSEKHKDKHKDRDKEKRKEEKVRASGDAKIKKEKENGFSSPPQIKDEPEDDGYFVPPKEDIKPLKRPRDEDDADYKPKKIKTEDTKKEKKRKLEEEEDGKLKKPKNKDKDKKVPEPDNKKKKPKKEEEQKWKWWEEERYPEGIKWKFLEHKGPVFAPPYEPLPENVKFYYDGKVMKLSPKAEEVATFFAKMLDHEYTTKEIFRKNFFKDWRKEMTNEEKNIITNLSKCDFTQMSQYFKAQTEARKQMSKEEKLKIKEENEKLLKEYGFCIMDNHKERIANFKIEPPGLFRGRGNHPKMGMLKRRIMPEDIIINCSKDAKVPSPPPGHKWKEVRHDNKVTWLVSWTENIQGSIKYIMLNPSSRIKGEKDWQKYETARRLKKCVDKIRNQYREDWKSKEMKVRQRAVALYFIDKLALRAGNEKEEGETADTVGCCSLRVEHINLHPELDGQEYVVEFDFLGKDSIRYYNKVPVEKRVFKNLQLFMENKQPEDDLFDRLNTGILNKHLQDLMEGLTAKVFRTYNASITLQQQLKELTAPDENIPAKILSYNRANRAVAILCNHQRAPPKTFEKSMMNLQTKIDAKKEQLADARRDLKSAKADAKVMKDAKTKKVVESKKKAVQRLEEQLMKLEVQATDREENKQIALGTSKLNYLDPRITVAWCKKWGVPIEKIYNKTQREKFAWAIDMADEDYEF

[3] = biological target: T2, Kinesin-like protein KIF11 (Homo sapiens, UniProt P52732); assay: Inhibition of KSP (unknown origin)
T2 sequence (P52732 whole entry): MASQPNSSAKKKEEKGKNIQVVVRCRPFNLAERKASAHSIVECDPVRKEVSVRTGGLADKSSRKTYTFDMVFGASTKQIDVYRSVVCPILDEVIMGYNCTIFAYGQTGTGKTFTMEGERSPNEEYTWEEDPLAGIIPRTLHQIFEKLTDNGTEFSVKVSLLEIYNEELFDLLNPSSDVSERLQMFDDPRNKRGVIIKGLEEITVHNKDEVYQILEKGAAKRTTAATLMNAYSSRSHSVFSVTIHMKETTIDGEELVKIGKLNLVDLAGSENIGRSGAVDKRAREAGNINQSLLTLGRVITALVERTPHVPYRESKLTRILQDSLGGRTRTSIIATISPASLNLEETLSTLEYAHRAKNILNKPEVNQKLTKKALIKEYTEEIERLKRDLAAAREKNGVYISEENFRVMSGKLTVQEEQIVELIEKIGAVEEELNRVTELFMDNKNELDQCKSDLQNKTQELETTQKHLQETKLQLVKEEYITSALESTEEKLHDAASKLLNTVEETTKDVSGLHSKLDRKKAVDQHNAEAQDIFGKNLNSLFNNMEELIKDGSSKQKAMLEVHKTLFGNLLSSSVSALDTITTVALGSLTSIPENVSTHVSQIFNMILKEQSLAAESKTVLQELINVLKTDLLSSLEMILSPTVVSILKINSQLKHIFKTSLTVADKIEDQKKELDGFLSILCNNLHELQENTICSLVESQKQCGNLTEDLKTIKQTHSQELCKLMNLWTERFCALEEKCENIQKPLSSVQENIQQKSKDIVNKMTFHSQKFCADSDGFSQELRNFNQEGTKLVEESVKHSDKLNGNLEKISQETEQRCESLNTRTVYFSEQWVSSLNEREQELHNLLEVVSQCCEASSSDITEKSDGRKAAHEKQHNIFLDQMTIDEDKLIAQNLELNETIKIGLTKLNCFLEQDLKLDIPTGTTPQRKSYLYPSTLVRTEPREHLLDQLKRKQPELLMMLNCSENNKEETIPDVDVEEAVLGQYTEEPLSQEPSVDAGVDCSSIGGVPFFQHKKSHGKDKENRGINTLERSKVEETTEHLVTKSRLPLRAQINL

MG-63 = assay: Cytotoxicity against human MG-63 cells; type: functional, cell-based
A549 [4] = assay: Cytotoxicity against human A549 cells measured after 48 hrs by MTT assay; type: functional, cell-based; settings: A549, 48 h
HeLa [5] = assay: Cytotoxicity against human HeLa cells measured after 48 hrs by MTT assay; type: functional, cell-based
SMMC-7721 [6] = assay: Cytotoxicity against human SMMC-7721 cells measured after 48 hrs by MTT assay; type: functional, cell-based; settings: SMMC-7721, 48 h
SGC-7901 [7] = assay: Cytotoxicity against human SGC-7901 cells measured after 48 hrs by MTT assay; type: functional, cell-based; settings: SGC-7901, 48 h
HT-1080 = assay: Cytotoxicity against human HT-1080 cells; type: functional, cell-based
SGC-7901 [8] = assay: Cytotoxicity against human SGC-7901 cells assessed as reduction in optical density by MTT assay; type: functional, cell-based
[9] = Cytotoxicity against human 95-D cells assessed as reduction in optical density by MTT assay; type: functional, cell-based
HepG2 [10] = assay: Cytotoxicity against human HepG2 cells assessed as reduction in optical density by MTT assay; type: functional, cell-based
TERT-RPE1 = assay: Cytotoxicity against human TERT-RPE1 cells; type: functional, cell-based; settings: RPE-1
LNCaP = assay: Cytotoxicity against human LNCaP cells; type: functional, cell-based
[11] = Cytotoxicity against human Lu1 cells; type: functional, cell-based
Col2 = assay: Cytotoxicity against human Col2 cells; type: functional, cell-based
HUVEC = assay: Cytotoxicity against human HUVEC cells; type: functional, cell-based
MCF7 [12] = assay: Cytotoxicity against human MCF7 cells; type: functional, cell-based
A549 [13] = assay: Cytotoxicity against human A549 cells; type: functional, cell-based
DU-145 = assay: Cytotoxicity against human DU-145 cells; type: functional, cell-based
ACHN = assay: Cytotoxicity against human ACHN cells; type: functional, cell-based
HeLa [14] = assay: Cytotoxicity against human HeLa cells; type: functional, cell-based
HCT-116 [15] = assay: Cytotoxicity against human HCT-116 cells by MTT assay; type: functional, cell-based
MCF7 [16] = assay: Cytotoxicity against human MCF7 cells by MTT assay; type: functional, cell-based
HepG2 [17] = assay: Cytotoxicity against human HepG2 cells; type: functional, cell-based; settings: read-out: TC50 (the source's name)
OVCAR-3 = assay: Cytotoxicity against human OVCAR-3 cells; type: functional, cell-based
HT-29 = assay: Growth inhibition of human HT-29 cells incubated for 72 hrs by SRB assay; type: functional, cell-based; settings: HT-29, 72 h
MDA-MB-231 = assay: Growth inhibition of human MDA-MB-231 cells incubated for 72 hrs by SRB assay; type: functional, cell-based; settings: MDA-MB-231, 72 h
A549 [18] = assay: Growth inhibition of human A549 cells incubated for 72 hrs by SRB assay; type: functional, cell-based; settings: A549, 72 h
MCF7 [19] = assay: Cytotoxicity against human MCF7 cells measured after 48 hrs by MTT assay; type: functional, cell-based; settings: MCF7, 48 h
HGC-27 = assay: Cytotoxicity against human HGC-27 cells measured after 48 hrs by MTT assay; type: functional, cell-based; settings: HGC-27, 48 h
PC-3 = assay: Cytotoxicity against human PC-3 cells measured after 48 hrs by MTT assay; type: functional, cell-based; settings: PC-3, 48 h

With `CN(C)c1ccc(-c2nc(C(=O)NCc3ccc(/C=C/C(=O)NO)cc3)cc3c2[nH]c2ccccc23)cc1` as the compound, how does the IC50 (HCT-116 [1]) read?
The IC50 was 1.84 µM.

What about the IC50 (SMMC-7721 [2]) of the same compound?
Its IC50 is 1.84 µM.

And the IC50 (Bel7402/5-FU)?
The IC50 was 1.84 µM.

What about the IC50 (Huh-7) of the same compound?
The IC50 was 1.84 µM.

What about the IC50 (Bel-7402) of the same compound?
Its IC50 is 1.84 µM.

For `Cc1ccc(-n2c(-c3cc4c([nH]c5ccccc54)c(-c4cccc(O)c4)n3)n[nH]c2=S)cc1`, which IC50 (DNA topoisomerase 1) is on record?
The IC50 was 2.5 µM.

And the IC50 [3]?
Its IC50 is 8.91 µM.

With `O=C(c1cc2c([nH]c3ccccc32)c(-c2ccccc2)n1)N1CCN(S(=O)(=O)c2ccccc2)CC1` as the compound, how does the IC50 (MG-63) read?
Its IC50 is 0.59 µM.

Which IC50 (A549 [4]) does the source give for `O=C(OCCCCCOC(=O)c1cc2c3ccccc3n(Cc3ccccc3F)c2cn1)c1cc2c3ccccc3n(Cc3ccccc3F)c2cn1` here?
Its IC50 is 5.61 µM.

What about the IC50 (HeLa [5]) of the same compound?
Its IC50 is 5.61 µM.

What about the IC50 (SMMC-7721 [6]) of the same compound?
The IC50 was 5.61 µM.

What about the IC50 (SGC-7901 [7]) of the same compound?
Its IC50 is 5.61 µM.

With `COc1ccc2c3ccnc4c(OC)cc(=O)n(c2c1)c43` as the compound, how does the IC50 (HT-1080) read?
Its IC50 is 5 µM.

What does the source list for `CSc1nnc(-c2cc3c([nH]c4ccccc43)c(-c3cccc(O)c3)n2)o1`?
IC50 (DNA topoisomerase 1): 7.8 µM; IC50 [3]: 8.73 µM

For `COc1ccc2c3ccnc(C)c3n(C)c2c1`, which IC50 (SGC-7901 [8]) is on record?
Its IC50 is under 36 µM.

What about the IC50 [9] of the same compound?
The IC50 was under 36 µM.

What about the IC50 (HepG2 [10]) of the same compound?
Its IC50 is under 36 µM.

What does the source list for `COc1cc2c3ccccc3n3c(=O)ccc(n1)c23`?
IC50 (TERT-RPE1): 0.503 µM; IC50 (LNCaP): 0.503 µM; IC50 [11]: 0.503 µM; IC50 (Col2): 0.503 µM; IC50 (HUVEC): 0.503 µM

Which results are given for `COc1ccc2c3ccnc(C)c3n(CCCc3ccccc3)c2c1`?
IC50 (SGC-7901 [8]): < 36 µM; IC50 [9]: 36 µM; IC50 (HepG2 [10]): < 36 µM

Which results are given for `O=c1cc2c3ccccc3n3c(=O)ccc([nH]1)c23`?
IC50 (TERT-RPE1): 0.506 µM; IC50 (LNCaP): 0.506 µM; IC50 [11]: 0.506 µM; IC50 (Col2): 0.506 µM; IC50 (HUVEC): 0.506 µM

For `CC(=O)N1N=C(c2ccco2)CC1c1cc2c([nH]c3ccccc32)c(-c2ccc(C(F)(F)F)cc2)n1` (configuration not stated), which IC50 (MCF7 [12]) is on record?
Its IC50 is 1.94 µM.

And the IC50 (A549 [13])?
Its IC50 is 1.94 µM.

What about the IC50 (DU-145) of the same compound?
Its IC50 is 1.94 µM.

What about the IC50 (ACHN) of the same compound?
The IC50 was 1.94 µM.

What about the IC50 (HeLa [14]) of the same compound?
Its IC50 is 1.94 µM.

For `COC(=O)c1cc2c([nH]c3ccccc32)c(C(C)=O)n1`, which IC50 (HCT-116 [15]) is on record?
The IC50 was 9.67 µg/mL (≈ 36 µM).

For `COc1ccc2c3ccnc(C)c3n(CC3CC(c4ccccc4)=NO3)c2c1` (configuration not stated), which IC50 (MCF7 [16]) is on record?
The IC50 was 0.8 µM.

With `O=C(O)[C@H](O)Cc1nccc2c1[nH]c1ccccc12` as the compound, how does the CC50 (HepG2 [17]) read?
The CC50 was 39 µM.

With `CNCC(O)c1ccc(O)c(C2(O)c3ccccc3-[n+]3ccc4c([nH]c5ccccc54)c32)c1` (configuration not stated) as the compound, how does the IC50 (MCF7 [12]) read?
The IC50 was 27 µg/mL.

And the IC50 (OVCAR-3)?
The IC50 was 27 µg/mL.

And the IC50 (A549 [13])?
Its IC50 is 27 µg/mL.

With `CCn1c2cc(OC)ccc2c2ccnc(C)c21` as the compound, how does the IC50 (SGC-7901 [8]) read?
Its IC50 is under 36 µM.

And the IC50 [9]?
The IC50 was 36 µM.

And the IC50 (HepG2 [10])?
The IC50 was under 36 µM.

What does the source list for `COc1ccc2[nH]c3cnc(-c4c[nH]c5cc(O)ccc45)c(C(=O)O)c3c2c1`?
IC50 (HT-29): 35 µg/mL (≈ 93.7 µM); IC50 (MDA-MB-231): 90 µg/mL (≈ 241 µM); IC50 (A549 [18]): 100 µg/mL (≈ 268 µM)

For `COc1ccc(-c2nc(Cn3cc(CN4C(=O)c5cccc6cccc(c56)C4=O)nn3)cc3c2[nH]c2ccccc23)cc1OC`, which IC50 (MCF7 [19]) is on record?
Its IC50 is 7.46 µM.

And the IC50 (HeLa [5])?
The IC50 was 7.46 µM.

What about the IC50 (HGC-27) of the same compound?
Its IC50 is 7.46 µM.

And the IC50 (PC-3)?
Its IC50 is 7.46 µM.
